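Dose response: 5 concentrations. Exposure: 48 h. Format: 96-well plates. Endpoint: linear interpolation; highest concentration if not reached. The concentration for 50% growth inhibition is given as GI50. Definition used: TGI = concentration required for complete inhibition of growth.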
Key:
Experiment in all cases: NCI tumour cell line growth inhibition, 48 h
[1] = tested on: 786-0 renal
[2] = tested on: A498 renal
[3] = tested on: A549 NSCLC
[4] = tested on: ACHN renal
[5] = tested on: BT-549 breast
[6] = tested on: CAKI-1 renal
[7] = tested on: CCRF-CEM leukemia
[8] = tested on: COLO 205 colon
[9] = tested on: DU-145 prostate
[10] = tested on: EKVX NSCLC
[11] = tested on: HCC-2998 colon
[12] = tested on: HCT-116 colon
[13] = tested on: HCT-15 colon
[14] = tested on: HL-60(TB) leukemia
[15] = tested on: HOP-62 NSCLC
[16] = tested on: HOP-92 NSCLC
[17] = tested on: HS 578T breast
[18] = tested on: HT29 colon
[19] = tested on: IGROV1 ovarian
[20] = tested on: K-562 leukemia
[21] = tested on: KM12 colon
[22] = tested on: LOX IMVI melanoma
[23] = tested on: M14 melanoma
[24] = tested on: MALME-3M melanoma
[25] = tested on: MCF7 breast
[26] = tested on: MDA-MB-231 breast
[27] = tested on: MDA-MB-435
[28] = tested on: MOLT-4 leukemia
[29] = tested on: NCI-H226 lung
[30] = tested on: NCI-H23 lung
[31] = tested on: NCI-H460 lung
[32] = tested on: NCI-H522 lung
[33] = tested on: NCI/ADR-RES ovarian
[34] = tested on: OVCAR-3 ovarian
[35] = tested on: OVCAR-4 ovarian
[36] = tested on: OVCAR-5 ovarian
[37] = tested on: OVCAR-8 ovarian
[38] = tested on: PC-3 prostate
[39] = tested on: RPMI-8226 leukemia
[40] = tested on: RXF 393 renal
[41] = tested on: SF-268 CNS
[42] = tested on: SF-295 CNS
[43] = tested on: SF-539 CNS
[44] = tested on: SK-MEL-2 melanoma
[45] = tested on: SK-MEL-28 melanoma
[46] = tested on: SK-MEL-5 melanoma
[47] = tested on: SK-OV-3 ovarian
[48] = tested on: SN12C renal
[49] = tested on: SNB-19 CNS
[50] = tested on: SNB-75 CNS
[51] = tested on: SR leukemia
[52] = tested on: SW-620 colon
[53] = tested on: T-47D breast
[54] = tested on: TK-10 renal
[55] = tested on: U251 CNS
[56] = tested on: UACC-257 melanoma
[57] = tested on: UACC-62 melanoma
[58] = tested on: UO-31 renal

SMILES: COc1ccc(C#Cc2ccc(=O)oc2-c2cc(OC)c(OC)c(OC)c2)cc1O
- GI50 [1]: 5.49 µM
- TGI [1]: > 33.2 µM
- GI50 [2]: 10.1 µM
- TGI [2]: > 83.1 µM
- GI50 [3]: 7.08 µM
- TGI [3]: > 100 µM
- GI50 [4]: 17.2 µM
- TGI [4]: > 100 µM
- GI50 [5]: 7.37 µM
- TGI [5]: > 64.2 µM
- GI50 [6]: 7.6 µM
- TGI [6]: > 100 µM
- GI50 [7]: 6.95 µM
- TGI [7]: > 100 µM
- GI50 [8]: 37.3 µM
- TGI [8]: > 100 µM
- GI50 [9]: 8.96 µM
- TGI [9]: > 85.9 µM
- GI50 [10]: 22.2 µM
- TGI [10]: > 100 µM
- GI50 [11]: 3.36 µM
- TGI [11]: 44 µM
- GI50 [12]: 3.28 µM
- TGI [12]: > 100 µM
- GI50 [13]: 2.86 µM
- TGI [13]: > 100 µM
- GI50 [14]: 2.13 µM
- TGI [14]: 17.4 µM
- GI50 [15]: 5.12 µM
- TGI [15]: > 64.6 µM
- GI50 [16]: 0.575 µM
- TGI [16]: 38.8 µM
- GI50 [17]: 7.4 µM
- TGI [17]: > 81.9 µM
- GI50 [18]: 7.98 µM
- TGI [18]: > 35.6 µM
- GI50 [19]: 1.02 µM
- TGI [19]: 6.75 µM
- GI50 [20]: 0.505 µM
- TGI [20]: > 100 µM
- GI50 [21]: 3.54 µM
- TGI [21]: > 100 µM
- GI50 [22]: 12.3 µM
- TGI [22]: > 100 µM
- GI50 [23]: 4.33 µM
- TGI [23]: > 51.6 µM
- GI50 [24]: 10.2 µM
- TGI [24]: > 83.7 µM
- GI50 [25]: 0.666 µM
- TGI [25]: > 100 µM
- GI50 [26]: 6.25 µM
- TGI [26]: > 100 µM
- GI50 [27]: 0.234 µM
- TGI [27]: 2.78 µM
- GI50 [28]: 6.3 µM
- TGI [28]: > 100 µM
- GI50 [29]: > 34 µM
- TGI [29]: > 100 µM
- GI50 [30]: 10.7 µM
- TGI [30]: > 100 µM
- GI50 [31]: 0.973 µM
- TGI [31]: > 100 µM
- GI50 [32]: 1.1 µM
- TGI [32]: 22.3 µM
- GI50 [33]: 2.6 µM
- TGI [33]: > 40.6 µM
- GI50 [34]: 1.81 µM
- TGI [34]: 28.5 µM
- GI50 [35]: 20.3 µM
- TGI [35]: > 100 µM
- GI50 [36]: 24 µM
- TGI [36]: > 100 µM
- GI50 [37]: 10.6 µM
- TGI [37]: > 100 µM
- GI50 [38]: 8.22 µM
- TGI [38]: > 100 µM
- GI50 [39]: 7.83 µM
- TGI [39]: > 88 µM
- GI50 [40]: 1.12 µM
- TGI [40]: 8.43 µM
- GI50 [41]: 7.23 µM
- TGI [41]: > 90.8 µM
- GI50 [42]: 4.49 µM
- TGI [42]: > 45.2 µM
- GI50 [43]: 6.27 µM
- TGI [43]: 40.4 µM
- GI50 [44]: 6.74 µM
- TGI [44]: > 100 µM
- GI50 [45]: 18.2 µM
- TGI [45]: > 100 µM
- GI50 [46]: 0.654 µM
- TGI [46]: > 46.1 µM
- GI50 [47]: 6.58 µM
- TGI [47]: > 83.1 µM
- GI50 [48]: 20.7 µM
- TGI [48]: > 100 µM
- GI50 [49]: 18 µM
- TGI [49]: > 100 µM
- GI50 [50]: 5.52 µM
- TGI [50]: 27.8 µM
- GI50 [51]: 0.225 µM
- TGI [51]: 18.7 µM
- GI50 [52]: 1.22 µM
- TGI [52]: > 100 µM
- TGI [53]: > 100 µM
- GI50 [54]: 21.8 µM
- TGI [54]: > 100 µM
- GI50 [55]: 5.4 µM
- TGI [55]: > 100 µM
- GI50 [56]: 7.87 µM
- TGI [56]: > 100 µM
- GI50 [57]: 5.53 µM
- TGI [57]: > 100 µM
- GI50 [58]: 11.1 µM
- TGI [58]: > 79.8 µM
